Source: publication PMC9898036, “VIP152 is a selective CDK9 inhibitor with pre-clinical in vitro and in vivo efficacy in chronic lymphocytic leukemia” (Leukemia, 2022)

Assays:
MAST1 = MAST1 (Homo sapiens, UniProt Q9Y2H9); experiment: KINOMEscan: MAST1; assay type: binding; settings: 1000 nM, read-out: Percent Control
Glutamate, Kainate = experiment: Eurofins Diversity Panel; assay type: binding; settings: rat, Conc. 10 μM
CIT = CIT (Homo sapiens, UniProt O14578); experiment: KINOMEscan: CIT; assay type: binding; settings: 1000 nM, read-out: Percent Control
CDK11 = CDK11 (Homo sapiens, UniProt Q9BWU1); experiment: KINOMEscan: CDK11; assay type: binding; settings: 1000 nM, read-out: Percent Control
KIT = KIT (Homo sapiens, UniProt P10721); experiment: KINOMEscan: KIT; assay type: binding; settings: 1000 nM, read-out: Percent Control
EGFR(G719C) = EGFR(G719C) (Homo sapiens, UniProt P00533, G719C); experiment: KINOMEscan: EGFR(G719C); assay type: binding; settings: 1000 nM, read-out: Percent Control
human kinome [1] = molecular target: human kinome (Homo sapiens, UniProt Q6DT37); experiment: DiscoverX KINOMEscan kinase profiling (468 assays); assay type: binding; settings: DMPK2 (Entrez CDC42BPG); 100 nM; read-out: Percent Control
Outline: (§1)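 VIP152 was run in DMSO, alongside a DMSO control. Readout was qPCR of DNA-tagged kinase still bound to bead-immobilized biotinylated kinase ligands after compound competition.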

human kinome [2] = molecular target: human kinome (Homo sapiens, UniProt Q9UM73, C1156Y); experiment: DiscoverX KINOMEscan kinase profiling (468 assays); assay type: binding; settings: ALK(C1156Y); 100 nM; read-out: Percent Control
Outline: as §1

human kinome [3] = molecular target: human kinome (Homo sapiens, UniProt Q99640); experiment: DiscoverX KINOMEscan kinase profiling (468 assays); assay type: binding; settings: read-out: Percent Control
human kinome (Homo sapiens, UniProt Q99640), sequence (Q99640 whole entry): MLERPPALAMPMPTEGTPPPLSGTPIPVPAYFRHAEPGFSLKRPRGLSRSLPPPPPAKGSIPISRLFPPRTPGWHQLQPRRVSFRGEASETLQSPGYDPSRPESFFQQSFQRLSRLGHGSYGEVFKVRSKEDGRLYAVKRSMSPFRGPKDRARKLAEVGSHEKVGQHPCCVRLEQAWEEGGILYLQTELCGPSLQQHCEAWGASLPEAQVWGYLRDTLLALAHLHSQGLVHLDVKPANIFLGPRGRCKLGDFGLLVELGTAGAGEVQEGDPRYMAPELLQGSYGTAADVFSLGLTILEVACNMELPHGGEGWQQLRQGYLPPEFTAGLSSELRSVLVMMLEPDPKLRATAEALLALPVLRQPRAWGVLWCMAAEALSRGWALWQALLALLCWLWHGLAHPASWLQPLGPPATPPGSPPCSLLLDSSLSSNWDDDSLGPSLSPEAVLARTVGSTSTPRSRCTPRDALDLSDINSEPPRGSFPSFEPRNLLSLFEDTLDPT
Outline: as §1

human kinome [4] = molecular target: human kinome (Homo sapiens, UniProt Q9Y463); experiment: DiscoverX KINOMEscan kinase profiling (468 assays); assay type: binding; settings: DYRK1B; 100 nM; read-out: Percent Control
Outline: as §1

human kinome [5] = molecular target: human kinome (Homo sapiens, UniProt Q05397); experiment: DiscoverX KINOMEscan kinase profiling (468 assays); assay type: binding; settings: FAK (Entrez PTK2); 100 nM; read-out: Percent Control
Outline: as §1

human kinome [6] = molecular target: human kinome (Homo sapiens, UniProt P42338); experiment: DiscoverX KINOMEscan kinase profiling (468 assays); assay type: binding; settings: read-out: Percent Control
human kinome (Homo sapiens, UniProt P42338), sequence (P42338 whole entry): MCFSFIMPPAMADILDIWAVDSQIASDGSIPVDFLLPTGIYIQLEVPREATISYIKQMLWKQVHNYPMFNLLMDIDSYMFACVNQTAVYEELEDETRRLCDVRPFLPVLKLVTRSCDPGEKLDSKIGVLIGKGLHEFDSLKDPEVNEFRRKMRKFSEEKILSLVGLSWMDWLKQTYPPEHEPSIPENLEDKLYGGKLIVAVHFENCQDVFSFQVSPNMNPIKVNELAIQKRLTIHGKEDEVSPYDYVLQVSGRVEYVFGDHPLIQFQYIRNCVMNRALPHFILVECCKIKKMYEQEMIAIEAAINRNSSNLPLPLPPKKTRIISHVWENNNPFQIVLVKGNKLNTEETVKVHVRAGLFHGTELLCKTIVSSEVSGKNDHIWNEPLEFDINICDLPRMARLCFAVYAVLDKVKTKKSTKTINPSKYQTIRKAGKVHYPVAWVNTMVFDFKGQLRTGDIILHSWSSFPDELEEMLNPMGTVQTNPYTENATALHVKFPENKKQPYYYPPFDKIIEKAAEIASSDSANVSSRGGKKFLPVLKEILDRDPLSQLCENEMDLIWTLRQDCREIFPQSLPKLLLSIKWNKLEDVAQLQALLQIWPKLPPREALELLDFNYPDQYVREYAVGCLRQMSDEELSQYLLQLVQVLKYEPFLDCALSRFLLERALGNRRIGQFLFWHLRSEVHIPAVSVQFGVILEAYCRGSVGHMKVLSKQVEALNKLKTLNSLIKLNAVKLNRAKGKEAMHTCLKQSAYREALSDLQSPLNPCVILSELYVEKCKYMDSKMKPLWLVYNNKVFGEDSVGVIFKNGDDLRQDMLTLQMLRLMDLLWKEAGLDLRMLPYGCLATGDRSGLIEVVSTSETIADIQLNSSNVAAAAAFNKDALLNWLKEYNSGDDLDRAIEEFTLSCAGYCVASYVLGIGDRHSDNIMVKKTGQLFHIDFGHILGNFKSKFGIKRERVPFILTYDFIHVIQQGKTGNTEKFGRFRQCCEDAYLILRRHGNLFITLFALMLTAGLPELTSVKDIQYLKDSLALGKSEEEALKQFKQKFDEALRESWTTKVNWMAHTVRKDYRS
Outline: as §1

human kinome [7] = molecular target: human kinome (Homo sapiens, UniProt P41743); experiment: DiscoverX KINOMEscan kinase profiling (468 assays); assay type: binding; settings: read-out: Percent Control
human kinome (Homo sapiens, UniProt P41743), sequence (P41743 whole entry): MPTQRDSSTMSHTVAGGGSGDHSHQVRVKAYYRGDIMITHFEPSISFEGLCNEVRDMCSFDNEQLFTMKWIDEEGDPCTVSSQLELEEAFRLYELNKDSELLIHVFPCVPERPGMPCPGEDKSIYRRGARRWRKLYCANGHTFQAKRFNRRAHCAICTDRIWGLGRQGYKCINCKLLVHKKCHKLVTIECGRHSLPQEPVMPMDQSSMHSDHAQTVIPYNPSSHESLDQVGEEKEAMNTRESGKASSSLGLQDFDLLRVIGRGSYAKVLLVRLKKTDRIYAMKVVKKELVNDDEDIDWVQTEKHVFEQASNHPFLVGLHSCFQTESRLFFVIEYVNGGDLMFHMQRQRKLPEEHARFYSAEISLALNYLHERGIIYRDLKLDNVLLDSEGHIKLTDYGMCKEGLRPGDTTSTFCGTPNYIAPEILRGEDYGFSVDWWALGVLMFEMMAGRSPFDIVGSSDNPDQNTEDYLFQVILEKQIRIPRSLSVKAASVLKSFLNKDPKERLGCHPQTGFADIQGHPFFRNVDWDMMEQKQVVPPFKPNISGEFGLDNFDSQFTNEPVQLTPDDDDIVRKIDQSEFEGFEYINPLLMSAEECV
Outline: as §1

human kinome [8] = molecular target: human kinome (Homo sapiens, UniProt Q15746); experiment: DiscoverX KINOMEscan kinase profiling (468 assays); assay type: binding; settings: read-out: Percent Control
human kinome (Homo sapiens, UniProt Q15746), sequence (Q15746 whole entry): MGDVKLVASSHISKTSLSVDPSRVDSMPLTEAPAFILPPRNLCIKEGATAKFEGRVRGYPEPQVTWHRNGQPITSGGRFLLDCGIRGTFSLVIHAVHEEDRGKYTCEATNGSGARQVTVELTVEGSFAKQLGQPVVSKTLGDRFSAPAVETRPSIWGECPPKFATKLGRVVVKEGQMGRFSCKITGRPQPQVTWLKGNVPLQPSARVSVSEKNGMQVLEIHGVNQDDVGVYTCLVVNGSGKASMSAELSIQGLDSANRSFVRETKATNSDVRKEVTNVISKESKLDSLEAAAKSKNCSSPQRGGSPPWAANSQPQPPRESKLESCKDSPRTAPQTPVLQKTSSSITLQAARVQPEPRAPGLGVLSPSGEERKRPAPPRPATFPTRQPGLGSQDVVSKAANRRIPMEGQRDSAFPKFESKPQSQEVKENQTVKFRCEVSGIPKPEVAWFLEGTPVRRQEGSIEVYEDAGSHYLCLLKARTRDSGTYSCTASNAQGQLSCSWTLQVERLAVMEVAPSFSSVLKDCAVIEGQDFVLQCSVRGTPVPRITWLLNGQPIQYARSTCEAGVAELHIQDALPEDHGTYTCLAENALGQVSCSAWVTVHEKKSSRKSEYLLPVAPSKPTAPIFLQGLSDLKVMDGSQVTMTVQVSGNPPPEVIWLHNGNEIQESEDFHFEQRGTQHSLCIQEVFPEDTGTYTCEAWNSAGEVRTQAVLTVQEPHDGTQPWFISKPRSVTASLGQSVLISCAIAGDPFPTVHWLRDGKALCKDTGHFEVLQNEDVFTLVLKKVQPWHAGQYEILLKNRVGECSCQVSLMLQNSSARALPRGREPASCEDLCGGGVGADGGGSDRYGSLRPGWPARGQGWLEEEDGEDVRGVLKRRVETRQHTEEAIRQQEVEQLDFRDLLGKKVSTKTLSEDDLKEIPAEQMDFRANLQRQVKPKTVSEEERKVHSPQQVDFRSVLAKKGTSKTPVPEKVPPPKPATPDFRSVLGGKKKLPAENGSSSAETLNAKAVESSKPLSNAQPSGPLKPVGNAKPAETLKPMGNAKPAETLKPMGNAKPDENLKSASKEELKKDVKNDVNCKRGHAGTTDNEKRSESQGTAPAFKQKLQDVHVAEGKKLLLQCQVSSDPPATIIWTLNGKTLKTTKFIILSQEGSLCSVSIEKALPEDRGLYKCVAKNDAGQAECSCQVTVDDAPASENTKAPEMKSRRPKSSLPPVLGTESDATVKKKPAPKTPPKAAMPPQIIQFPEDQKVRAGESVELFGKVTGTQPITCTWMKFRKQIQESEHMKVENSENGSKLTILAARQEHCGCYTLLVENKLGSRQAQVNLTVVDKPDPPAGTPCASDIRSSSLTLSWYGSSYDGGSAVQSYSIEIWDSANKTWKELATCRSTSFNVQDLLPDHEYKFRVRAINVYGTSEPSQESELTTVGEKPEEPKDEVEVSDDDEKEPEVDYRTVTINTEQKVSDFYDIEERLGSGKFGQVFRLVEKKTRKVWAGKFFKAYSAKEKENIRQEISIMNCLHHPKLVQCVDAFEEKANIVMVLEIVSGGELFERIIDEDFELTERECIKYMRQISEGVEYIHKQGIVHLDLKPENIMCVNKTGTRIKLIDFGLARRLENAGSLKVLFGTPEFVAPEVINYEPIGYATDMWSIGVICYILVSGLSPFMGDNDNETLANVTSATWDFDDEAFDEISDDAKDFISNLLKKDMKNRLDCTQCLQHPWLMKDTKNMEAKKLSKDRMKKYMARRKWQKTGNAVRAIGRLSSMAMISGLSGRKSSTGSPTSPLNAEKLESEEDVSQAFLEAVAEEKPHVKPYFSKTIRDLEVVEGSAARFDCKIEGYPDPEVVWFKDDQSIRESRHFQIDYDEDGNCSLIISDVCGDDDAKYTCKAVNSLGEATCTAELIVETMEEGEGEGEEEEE
Outline: as §1

human kinome [9] = molecular target: human kinome (Homo sapiens, UniProt Q96NX5); experiment: DiscoverX KINOMEscan kinase profiling (468 assays); assay type: binding; settings: CAMK1G; 100 nM; read-out: Percent Control
Outline: as §1

human kinome [10] = molecular target: human kinome (Homo sapiens, UniProt Q16513); experiment: DiscoverX KINOMEscan kinase profiling (468 assays); assay type: binding; settings: read-out: Percent Control
human kinome (Homo sapiens, UniProt Q16513), sequence (Q16513 whole entry): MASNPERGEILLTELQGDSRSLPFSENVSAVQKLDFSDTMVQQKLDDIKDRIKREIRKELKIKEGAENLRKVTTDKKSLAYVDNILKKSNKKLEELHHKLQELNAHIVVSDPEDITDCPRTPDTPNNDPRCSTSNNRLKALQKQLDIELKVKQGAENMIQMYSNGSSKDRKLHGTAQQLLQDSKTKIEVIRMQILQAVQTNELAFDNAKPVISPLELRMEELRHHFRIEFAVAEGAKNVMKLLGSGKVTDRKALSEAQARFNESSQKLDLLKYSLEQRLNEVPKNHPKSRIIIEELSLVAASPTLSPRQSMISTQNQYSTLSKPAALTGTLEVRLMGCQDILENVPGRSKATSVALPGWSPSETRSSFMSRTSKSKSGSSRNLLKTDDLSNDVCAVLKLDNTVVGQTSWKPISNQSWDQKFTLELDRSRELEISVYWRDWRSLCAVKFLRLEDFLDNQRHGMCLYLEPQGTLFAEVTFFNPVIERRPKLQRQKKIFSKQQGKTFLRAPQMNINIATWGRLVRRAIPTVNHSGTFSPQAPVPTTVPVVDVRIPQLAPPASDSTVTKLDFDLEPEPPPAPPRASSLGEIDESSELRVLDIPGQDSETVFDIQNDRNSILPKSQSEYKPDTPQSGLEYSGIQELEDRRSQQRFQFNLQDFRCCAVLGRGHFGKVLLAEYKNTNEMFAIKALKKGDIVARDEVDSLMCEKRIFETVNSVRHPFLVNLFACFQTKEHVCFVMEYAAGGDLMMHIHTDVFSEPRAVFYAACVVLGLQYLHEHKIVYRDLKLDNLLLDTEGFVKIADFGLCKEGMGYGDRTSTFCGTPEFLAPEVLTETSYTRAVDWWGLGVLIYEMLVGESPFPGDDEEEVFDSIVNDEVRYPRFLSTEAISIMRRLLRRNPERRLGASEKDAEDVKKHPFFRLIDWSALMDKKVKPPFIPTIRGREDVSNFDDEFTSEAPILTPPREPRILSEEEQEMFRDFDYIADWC
Outline: as §1

human kinome [11] = molecular target: human kinome (Homo sapiens, UniProt P21860); experiment: DiscoverX KINOMEscan kinase profiling (468 assays); assay type: binding; settings: ERBB3; 100 nM; read-out: Percent Control
Outline: as §1

human kinome [12] = molecular target: human kinome (Homo sapiens, UniProt P10721, A829P); experiment: DiscoverX KINOMEscan kinase profiling (468 assays); assay type: binding; settings: KIT(A829P); 100 nM; read-out: Percent Control
Outline: as §1

human kinome [13] = molecular target: human kinome (Homo sapiens, UniProt Q6PHR2); experiment: DiscoverX KINOMEscan kinase profiling (468 assays); assay type: binding; settings: kinase ULK3 (Entrez ULK3); compound concentration 1000 nM; read-out: Percent Control
Outline: as §1

human kinome [14] = molecular target: human kinome (Homo sapiens, UniProt Q92918); experiment: DiscoverX KINOMEscan kinase profiling (468 assays); assay type: binding; settings: HPK1 (Entrez MAP4K1); 100 nM; read-out: Percent Control
Outline: as §1

human kinome [15] = molecular target: human kinome (Homo sapiens, UniProt Q9UEW8); experiment: DiscoverX KINOMEscan kinase profiling (468 assays); assay type: binding; settings: kinase STK39 (Entrez STK39); compound concentration 1000 nM; read-out: Percent Control
Outline: as §1

human kinome [16] = molecular target: human kinome (Homo sapiens, UniProt P27448); experiment: DiscoverX KINOMEscan kinase profiling (468 assays); assay type: binding; settings: MARK3; 100 nM; read-out: Percent Control
Outline: as §1

human kinome [17] = molecular target: human kinome (Homo sapiens, UniProt O94804); experiment: DiscoverX KINOMEscan kinase profiling (468 assays); assay type: binding; settings: LOK (Entrez STK10); 100 nM; read-out: Percent Control
Outline: as §1

EPHA7 = EPHA7 (Homo sapiens, UniProt Q15375); experiment: KINOMEscan: EPHA7; assay type: binding; settings: 1000 nM, read-out: Percent Control
YSK1 = YSK1 (Homo sapiens, UniProt O00506); experiment: KINOMEscan: YSK1; assay type: binding; settings: 100 nM, read-out: Percent Control
FLT3(ITD) = experiment: KINOMEscan: FLT3(ITD); assay type: binding, human; settings: 1000 nM
[18] = molecular target: T1, CDK9 in complex with Cyclin K (Homo sapiens, UniProt P50750); experiment: NanoBRET target engagement assay (HEK293); assay type: cell-based
T1 construct: host or cells: HEK293

CDKL2 = CDKL2 (Homo sapiens, UniProt Q92772); experiment: KINOMEscan: CDKL2; assay type: binding; settings: 1000 nM, read-out: Percent Control
VPS34 = VPS34 (Homo sapiens, UniProt Q8NEB9); experiment: KINOMEscan: VPS34; assay type: binding; settings: 100 nM, read-out: Percent Control
Bradykinin B2 = Bradykinin B2 (Homo sapiens, UniProt P30411); experiment: Eurofins Diversity Panel; assay type: binding; settings: hum, Conc. 10 μM
MAP4K4 = MAP4K4 (Homo sapiens, UniProt O95819); experiment: KINOMEscan: MAP4K4; assay type: binding; settings: 1000 nM, read-out: Percent Control
ANKK1 = ANKK1 (Homo sapiens, UniProt Q8NFD2); experiment: KINOMEscan: ANKK1; assay type: binding; settings: 1000 nM, read-out: Percent Control
TTK = TTK (Homo sapiens, UniProt P33981); experiment: KINOMEscan: TTK; assay type: binding; settings: 100 nM, read-out: Percent Control
GRK3 = GRK3 (Homo sapiens, UniProt P35626); experiment: KINOMEscan: GRK3; assay type: binding; settings: 1000 nM, read-out: Percent Control

## COc1cc(F)ccc1-c1cc(Nc2cc(CS(C)(=N)=O)ccn2)ncc1F (stereo not drawn) [VIP152]
MAST1
  remaining binding at 1 µM: 81%
Glutamate, Kainate
  % Inh.: 13%
CIT
  remaining binding at 1 µM: 43%
CDK11
  remaining binding at 1 µM: 100%
KIT
  remaining binding at 1 µM: 83%
EGFR(G719C)
  remaining binding at 1 µM: 97%
Human kinome [1]
  remaining binding at 0.1 µM: 100%
Human kinome [2]
  remaining binding at 0.1 µM: 100%
Human kinome [3]; PKMYT1, 100 nM
  remaining binding at 0.1 µM: 100%
Human kinome [3]; kinase PKMYT1 (Entrez PKMYT1), compound concentration 1000 nM
  remaining binding at 1 µM: 45%
Human kinome [4]
  remaining binding at 0.1 µM: 100%
Human kinome [5]
  remaining binding at 0.1 µM: 100%
Human kinome [6]; PIK3CB, 100 nM
  remaining binding at 0.1 µM: 100%
Human kinome [6]; kinase PIK3CB (Entrez PIK3CB), compound concentration 1000 nM
  remaining binding at 1 µM: 100%
Human kinome [7]; PRKCI, 100 nM
  remaining binding at 0.1 µM: 90%
Human kinome [7]; kinase PRKCI (Entrez PRKCI), compound concentration 1000 nM
  remaining binding at 1 µM: 96%
Human kinome [8]; MYLK, 100 nM
  remaining binding at 0.1 µM: 95%
Human kinome [8]; kinase MYLK (Entrez MYLK), compound concentration 1000 nM
  remaining binding at 1 µM: 77%
Human kinome [9]
  remaining binding at 0.1 µM: 100%
Human kinome [10]; PKN2, 100 nM
  remaining binding at 0.1 µM: 96%
Human kinome [10]; kinase PKN2 (Entrez PKN2), compound concentration 1000 nM
  remaining binding at 1 µM: 92%
Human kinome [11]
  remaining binding at 0.1 µM: 100%
Human kinome [12]
  remaining binding at 0.1 µM: 100%
Human kinome [13]
  remaining binding at 1 µM: 85%
Human kinome [14]
  remaining binding at 0.1 µM: 90%
Human kinome [15]
  remaining binding at 1 µM: 92%
Human kinome [16]
  remaining binding at 0.1 µM: 99%
Human kinome [17]
  remaining binding at 0.1 µM: 95%
EPHA7
  remaining binding at 1 µM: 100%
YSK1
  remaining binding at 0.1 µM: 100%
FLT3(ITD)
  Percent Control: 87%
[18]
  potency versus the other inhibitors: higher potency
CDKL2
  remaining binding at 1 µM: 18%
VPS34
  remaining binding at 0.1 µM: 94%
Bradykinin B2
  inhibition at 10 µM: 9%
MAP4K4
  remaining binding at 1 µM: 44%
ANKK1
  remaining binding at 1 µM: 83%
TTK
  remaining binding at 0.1 µM: 95%
GRK3
  remaining binding at 1 µM: 100%
